Results as given in ChEMBL document CHEMBL1201862, “PubChem BioAssay data set” (2004).
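Five compound concentrations were applied to cells in 96-well plates for 48 hours; endpoints were derived by simple linear interpolation of the resulting dose-response curve. The concentration for 50% growth inhibition is given as GI50.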 Calls of active or inactive are those of the source. Cut-off read from the data, not from the text of the source: active = GI50 up to about 1.1 µM and inactive = higher.

How the values were obtained:
Experiment in all cases: NCI anticancer screen, dose series, 48 h
[1] = system: ACHN
[2] = system: HCT-116
[3] = system: Hs-578T
[4] = system: IGROV-1
[5] = system: MDA-MB-231
[6] = system: MDA-N
[7] = system: Malme-3M
[8] = system: NCI-H460
[9] = system: NCI/ADR-RES
[10] = system: PC-3
[11] = system: SF-268
[12] = system: SN12C
[13] = system: SNB-19
[14] = system: SNB-75
[15] = system: U-251
[16] = system: UO-31
[17] = system: A498
[18] = system: CCRF-CEM
[19] = system: RXF 393
[20] = system: SF-539

SMILES | GI50 [1] | GI50 [2] | GI50 [3] | GI50 [4] | GI50 [5] | GI50 [6] | GI50 [7] | GI50 [8] | GI50 [9] | GI50 [10] | GI50 [11] | GI50 [12] | GI50 [13] | GI50 [14] | GI50 [15] | GI50 [16] | GI50 [17] | GI50 [18] | GI50 [19] | GI50 [20]
Cc1cnc2sn(-c3ccc([N+](=O)[O-])cc3)c(=O)c2c1 | 29.4 µM (inactive) | > 100 µM (inactive) | 53.5 µM (inactive) | 57.3 µM (inactive) | 82.2 µM (inactive) | > 100 µM (inactive) | > 100 µM (inactive) | 60.4 µM (inactive) | > 100 µM (inactive) | 66.2 µM (inactive) | 54.1 µM (inactive) | > 100 µM (inactive) | 50.4 µM (inactive) | 23.8 µM (inactive) | 30.1 µM (inactive) | 74.6 µM (inactive) |  |  |  | 
Cc1ccc(Nc2cn(COCc3ccccc3)c(=O)[nH]c2=O)cc1 | 37 µM (inactive) | > 100 µM (inactive) | 24.9 µM (inactive) | 45.6 µM (inactive) |  | > 100 µM (inactive) |  | > 100 µM (inactive) | > 100 µM (inactive) | > 100 µM (inactive) | 27.8 µM (inactive) | > 100 µM (inactive) | 75.2 µM (inactive) |  | > 100 µM (inactive) | > 100 µM (inactive) | > 100 µM (inactive) | > 100 µM (inactive) | > 100 µM (inactive) | 
O=C1CC(Cl)c2c1csc2Br (stereo unspecified) | 15.6 µM (inactive) | 15.9 µM (inactive) | 21.6 µM (inactive) | 16.5 µM (inactive) |  | 19.3 µM (inactive) | 15.7 µM (inactive) | 20.4 µM (inactive) | 20.9 µM (inactive) | 12.8 µM (inactive) | 16.8 µM (inactive) | 17.6 µM (inactive) | 17.5 µM (inactive) | 19.8 µM (inactive) | 16.7 µM (inactive) | 8.93 µM (inactive) | 24.1 µM (inactive) | 2.65 µM (inactive) | 19 µM (inactive) | 3 µM (inactive)
CCOC(=O)N1CCN(c2ccc3ccc(N)nc3n2)CC1 | > 100 µM (inactive) | > 100 µM (inactive) | > 100 µM (inactive) | > 100 µM (inactive) | > 100 µM (inactive) | > 100 µM (inactive) | > 100 µM (inactive) | 71.6 µM (inactive) | > 100 µM (inactive) | > 100 µM (inactive) | > 100 µM (inactive) | > 100 µM (inactive) | > 100 µM (inactive) | > 100 µM (inactive) | > 100 µM (inactive) | > 100 µM (inactive) |  | 50.1 µM (inactive) |  | > 100 µM (inactive)
CCCCCCCCCCCCCCCCCCNc1ccn(C2OC(COP(=O)(O)OCC3CCC(n4cnc5c(=O)[nH]cnc54)O3)C(O)C2O)c(=O)n1 (stereo unspecified) | > 100 µM (inactive) | > 100 µM (inactive) | > 100 µM (inactive) | 84.1 µM (inactive) |  | > 100 µM (inactive) | > 100 µM (inactive) | > 100 µM (inactive) | > 100 µM (inactive) | 14.2 µM (inactive) | > 100 µM (inactive) | > 100 µM (inactive) | > 100 µM (inactive) | > 100 µM (inactive) | > 100 µM (inactive) | > 100 µM (inactive) | > 100 µM (inactive) | 29.3 µM (inactive) | 19.9 µM (inactive) | 83.8 µM (inactive)
Cc1cccc(-c2cc(O)c3cccnc3n2)c1 | 18.7 µM (inactive) | 0.385 µM (active) | 0.444 µM (active) | 0.914 µM (active) | 2.09 µM (inactive) | 0.0431 µM (active) |  | 0.475 µM (active) | 0.618 µM (active) | 1.12 µM (inactive) | 59 µM (inactive) | 2.75 µM (inactive) | 1.69 µM (inactive) | 1.26 µM (inactive) | 0.449 µM (active) | > 100 µM (inactive) |  | 0.935 µM (active) | 6.24 µM (inactive) | 0.92 µM (active)
